# Legend:
# Assay type in all cases: biochemical
# Settings in all cases: 1 μM inhibitor concentration
# ERK1 = ERK1 (Homo sapiens (Human), UniProt P27361); assay: ERK1 kinase selectivity assay
# Method: 5-20 mU of ERK1 (diluted in 50 mM Tris (pH 7.5), 0.1 mM EGTA, 1 mg/ml BSA, 0.1%, b-Mercaptoethanol) is assayed against MBP in a final volume of 25.5 μl containing 50 mM Tris (pH 7.5), 0.1 mM EGTA, 0.1%, b-Mercaptoethanol, 0.33 mg/ml MBP, 10 mM magnesium acetate and 0.005 mM [33P-g-ATP](500-1000 cpm/pmole) and incubated for 30 mins at room temperature. Assays are stopped by addition of 5 μl of 0.5M (3%) orthophosphoric acid. Assays are harvested onto P81 Unifilter plates using a wash buffer of 50 mM orthophosphoric acid.
# PKBa = PKBa (Homo sapiens (Human), UniProt P31749, S473D); assay: PKBa kinase selectivity assay
# Method: (§1) ΔPH-PKBa-S473D (5-20 mU diluted in 50 mM Tris pH 7.5, 0.1 mM EGTA, 0.1% b-mercaptoethanol, 1 mg/ml BSA) is assayed against a modified Crosstide peptide […] in a final volume of 25.5 μl containing 50 mM Tris pH 7.5, 0.05% b-mercaptoethanol, 30 μM substrate peptide, 10 mM magnesium acetate and 0.005 mM [33P-g-ATP](50-1000 cpm/pmole) and incubated for 30 min at room temperature. Assays are stopped by addition of 5 μl of 0.5 M (3%) orthophosphoric acid and then harvested onto P81 Unifilter plates with a wash buffer of 50 mM orthophosphoric acid.
# ERK2 = ERK2 (Homo sapiens (Human), UniProt P28482); assay: ERK2 kinase selectivity assay
# Method: MAPK/ERK2 (5-20 mU diluted in 50 mM Tris pH 7.5, 0.1 mM EGTA, 0.1 mM Na3VO4, 0.1% b-mercaptoethanol, 1 mg/ml BSA) is assayed against MBP in a final volume of 25.5 μl in 25 mM Tris pH 7.5, 0.1 mM EGTA, 0.33 mg/ml MBP, 10 mM magnesium acetate and 0.05 mM [33P-g-ATP](500-1000 cpm/pmole) and incubated for 30 min at room temperature. Assays are stopped by addition of 5 μl of 0.5 M (3%) orthophosphoric acid and then harvested onto P81 Unifilter plates with a wash buffer of 50 mM orthophosphoric acid.
# RSK2 = RSK2 (Homo sapiens (Human), UniProt P51812); assay: RSK2 kinase selectivity assay
# Method: MAPKAP-K1b (5-20 mU diluted in 20 mM MOPS pH 7.5, 1 mM EDTA, 0.01% Brij35, 5% glycerol, 0.1% b-mercaptoethanol, 1 mg/ml BSA) is assayed against substrate peptide ([…]) in a final volume of […] containing 50 mM Na-b-glycerophosphate (pH 7.5), 0.5 mM EDTA, 30 μM substrate peptide, 10 mM magnesium acetate and 0.05 mM [33P-g-ATP] (50-1000 cpm/pmole) and incubated for 30 min at room temperature. Assays are stopped by addition of 5 μl of 0.5 M (3%) orthophosphoric acid and then harvested onto P81 Unifilter plates with a wash buffer of 50 mM orthophosphoric acid.
# MNK1 = MNK1 (Homo sapiens (Human), UniProt Q9BUB5); assay: MNK1 kinase selectivity assay
# Method: 5-20 mU of MNK1 (diluted in 50 mM Tris (pH 7.5), 0.1 mM EGTA, 1 mg/ml BSA, 0.1%, b-Mercaptoethanol) is assayed against substrate peptide (eIF4E) in a final volume of 25.5p1 containing 50 mM Tris (pH 7.5), 0.1 mM EGTA, 0.1%, b-Mercaptoethanol, 0.5 mg/ml substrate peptide, 10 mM magnesium acetate and 0.05 mM [33P-g-ATP](500-1000 cpm/pmole) and incubated for 30 mins at room temperature. Assays are stopped by addition of 5p1 of 0.5M (3%) orthophosphoric acid. Assays are harvested onto P81 Unifilter plates using a wash buffer of 50 mM orthophosphoric acid.
# MST2 = MST2 (Homo sapiens (Human), UniProt Q13188); assay: MST2 kinase selectivity assay
# Method: MST2 (5-20 mU diluted in 50 mM Tris pH 7.5, 0.1 mM EGTA, 0.1% b-mercaptoethanol, 100 µM Vanadate) is assayed against MBP in a final volume of 25.5 μl containing 50 mM Tris pH 7.5, 0.05% b-mercaptoethanol, 0.33 mg/ml MBP, 10 mM magnesium acetate and 0.02 mM [33P-g-ATP] (50-1000 cpm/pmole) and incubated for 30 min at room temperature. Assays are stopped by addition of 5 μl of 0.5 M (3%) orthophosphoric acid and then harvested onto P81 Unifilter plates with a wash buffer of 50 mM orthophosphoric acid.
# PRAK = PRAK (Homo sapiens (Human), UniProt Q8IW41); assay: PRAK kinase selectivity assay
# Method: as §1, with “PRAK” for “ΔPH-PKBa-S473D”, “Na-b-glycerophosphate” for “Tris”, “against” for “against a modified Crosstide peptide”, “0.1 mM EGTA,” for “0.05% b-mercaptoethanol,”, “0.02” for “0.005”, “[33P-g-ATP] (50-1000” for “[33P-g-ATP](50-1000”
# MSK1 = MSK1 (Homo sapiens (Human), UniProt O75582); assay: MSK1 kinase selectivity assay
# Method: MSK1 (5-20 mU diluted in 20 mM MOPS pH 7.5, 1 mM EDTA, 0.01% Brij35, 0.1% b-mercaptoethanol, 1 mg/ml BSA) is assayed against a modified Crosstide peptide […] in a final volume of 25.5 μl containing 8 mM MOPS pH7.0, 0.2 mM EDTA, 30 μM substrate peptide, 10 mM magnesium acetate and 0.02 mM [33P-g-ATP](50-1000 cpm/pmole) and incubated for 30 min at room temperature Assays are stopped by addition of 5 μl of 0.5 M (3%) orthophosphoric acid and then harvested onto P81 Unifilter plates with a wash buffer of 50 mM orthophosphoric acid.
# Chain of ERK1 (P27361 whole entry, species assumed): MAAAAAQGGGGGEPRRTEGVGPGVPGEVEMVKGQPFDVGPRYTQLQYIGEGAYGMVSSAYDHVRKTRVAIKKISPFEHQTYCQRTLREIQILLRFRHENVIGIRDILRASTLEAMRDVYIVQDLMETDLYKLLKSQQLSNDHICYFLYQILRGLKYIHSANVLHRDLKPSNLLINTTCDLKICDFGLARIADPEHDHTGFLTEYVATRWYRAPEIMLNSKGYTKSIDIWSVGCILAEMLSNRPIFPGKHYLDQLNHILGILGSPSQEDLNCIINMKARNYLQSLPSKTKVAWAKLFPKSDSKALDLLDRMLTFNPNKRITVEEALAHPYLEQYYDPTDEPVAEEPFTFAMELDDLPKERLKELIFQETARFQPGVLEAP
# Chain of PRAK (Q8IW41 whole entry, species assumed): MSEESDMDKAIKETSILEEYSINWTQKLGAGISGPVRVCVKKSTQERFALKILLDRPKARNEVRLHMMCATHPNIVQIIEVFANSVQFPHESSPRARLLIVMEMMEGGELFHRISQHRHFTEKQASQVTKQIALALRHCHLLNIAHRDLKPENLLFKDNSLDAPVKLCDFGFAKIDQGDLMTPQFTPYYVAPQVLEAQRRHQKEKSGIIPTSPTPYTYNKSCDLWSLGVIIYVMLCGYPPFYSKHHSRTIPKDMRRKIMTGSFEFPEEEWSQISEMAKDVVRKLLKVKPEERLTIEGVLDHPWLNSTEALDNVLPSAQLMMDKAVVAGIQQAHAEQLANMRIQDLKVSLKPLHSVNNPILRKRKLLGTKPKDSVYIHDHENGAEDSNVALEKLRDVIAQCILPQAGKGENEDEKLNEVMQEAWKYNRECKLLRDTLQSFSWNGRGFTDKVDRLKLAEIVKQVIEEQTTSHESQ
# Chain of ERK2 (P28482 whole entry, species assumed): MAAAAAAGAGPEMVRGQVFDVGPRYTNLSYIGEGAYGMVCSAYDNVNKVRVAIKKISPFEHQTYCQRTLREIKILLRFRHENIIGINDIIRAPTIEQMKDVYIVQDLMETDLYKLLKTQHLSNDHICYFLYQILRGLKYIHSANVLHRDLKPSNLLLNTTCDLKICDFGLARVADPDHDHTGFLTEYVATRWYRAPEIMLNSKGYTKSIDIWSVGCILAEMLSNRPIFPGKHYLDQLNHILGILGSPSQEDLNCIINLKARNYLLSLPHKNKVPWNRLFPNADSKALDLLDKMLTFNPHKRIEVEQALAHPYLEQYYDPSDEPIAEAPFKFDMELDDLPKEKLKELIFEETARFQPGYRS
# Chain of MST2 (Q13188 whole entry, species assumed): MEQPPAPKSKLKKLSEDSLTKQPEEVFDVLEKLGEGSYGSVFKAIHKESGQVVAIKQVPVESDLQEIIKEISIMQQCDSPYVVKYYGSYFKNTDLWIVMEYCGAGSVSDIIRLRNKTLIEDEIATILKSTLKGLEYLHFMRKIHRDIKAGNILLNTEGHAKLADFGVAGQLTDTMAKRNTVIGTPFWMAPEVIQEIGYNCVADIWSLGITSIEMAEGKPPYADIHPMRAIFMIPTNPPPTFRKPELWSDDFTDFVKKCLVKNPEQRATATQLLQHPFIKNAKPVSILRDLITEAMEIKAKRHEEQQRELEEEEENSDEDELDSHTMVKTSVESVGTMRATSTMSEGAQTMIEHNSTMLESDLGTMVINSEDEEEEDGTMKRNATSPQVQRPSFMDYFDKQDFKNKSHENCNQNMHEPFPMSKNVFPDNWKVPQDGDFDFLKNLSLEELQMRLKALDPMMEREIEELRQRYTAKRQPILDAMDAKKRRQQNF
# Chain of RSK2 (P51812 whole entry, species assumed): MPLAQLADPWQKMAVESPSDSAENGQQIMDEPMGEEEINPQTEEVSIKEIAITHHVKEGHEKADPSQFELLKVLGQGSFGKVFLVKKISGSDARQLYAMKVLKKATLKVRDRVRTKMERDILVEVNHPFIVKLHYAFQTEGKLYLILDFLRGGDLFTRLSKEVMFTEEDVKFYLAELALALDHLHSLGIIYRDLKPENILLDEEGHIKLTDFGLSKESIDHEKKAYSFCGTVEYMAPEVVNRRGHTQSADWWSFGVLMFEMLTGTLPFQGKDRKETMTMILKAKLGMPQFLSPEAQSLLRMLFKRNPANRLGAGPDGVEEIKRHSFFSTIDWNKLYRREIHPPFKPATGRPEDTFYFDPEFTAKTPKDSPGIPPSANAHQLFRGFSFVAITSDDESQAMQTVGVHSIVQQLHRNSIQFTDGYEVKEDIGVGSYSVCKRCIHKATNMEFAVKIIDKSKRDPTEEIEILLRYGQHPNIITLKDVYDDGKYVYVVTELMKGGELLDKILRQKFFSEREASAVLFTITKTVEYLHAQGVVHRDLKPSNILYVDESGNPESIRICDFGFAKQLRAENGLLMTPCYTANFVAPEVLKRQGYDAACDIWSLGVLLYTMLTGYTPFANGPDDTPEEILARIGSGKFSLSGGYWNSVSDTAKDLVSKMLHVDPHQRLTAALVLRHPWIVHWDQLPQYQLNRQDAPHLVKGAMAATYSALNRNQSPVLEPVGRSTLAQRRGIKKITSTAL
# Chain of MSK1 (O75582 whole entry, species assumed): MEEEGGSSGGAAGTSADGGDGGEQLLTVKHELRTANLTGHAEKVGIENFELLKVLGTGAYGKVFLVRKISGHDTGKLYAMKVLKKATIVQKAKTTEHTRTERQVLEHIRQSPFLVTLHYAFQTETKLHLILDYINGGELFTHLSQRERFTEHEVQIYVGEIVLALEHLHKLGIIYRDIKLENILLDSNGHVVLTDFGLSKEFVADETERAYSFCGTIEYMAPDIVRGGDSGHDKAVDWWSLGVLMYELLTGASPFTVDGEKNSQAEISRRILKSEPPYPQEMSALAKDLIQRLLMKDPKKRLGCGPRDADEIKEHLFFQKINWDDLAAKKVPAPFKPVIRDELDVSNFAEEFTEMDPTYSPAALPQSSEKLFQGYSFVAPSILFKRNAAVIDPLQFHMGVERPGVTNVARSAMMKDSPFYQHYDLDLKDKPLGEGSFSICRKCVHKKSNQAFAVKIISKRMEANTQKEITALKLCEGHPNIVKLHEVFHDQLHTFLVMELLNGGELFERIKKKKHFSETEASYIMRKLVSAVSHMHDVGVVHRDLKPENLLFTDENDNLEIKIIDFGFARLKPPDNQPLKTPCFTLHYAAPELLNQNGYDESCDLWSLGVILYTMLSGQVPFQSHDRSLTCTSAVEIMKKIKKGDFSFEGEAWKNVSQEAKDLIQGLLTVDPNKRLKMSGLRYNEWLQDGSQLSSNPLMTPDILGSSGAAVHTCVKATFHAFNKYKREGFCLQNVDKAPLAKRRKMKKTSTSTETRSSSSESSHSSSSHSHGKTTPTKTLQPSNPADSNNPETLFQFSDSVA
# Chain of MNK1 (Q9BUB5 whole entry, species assumed): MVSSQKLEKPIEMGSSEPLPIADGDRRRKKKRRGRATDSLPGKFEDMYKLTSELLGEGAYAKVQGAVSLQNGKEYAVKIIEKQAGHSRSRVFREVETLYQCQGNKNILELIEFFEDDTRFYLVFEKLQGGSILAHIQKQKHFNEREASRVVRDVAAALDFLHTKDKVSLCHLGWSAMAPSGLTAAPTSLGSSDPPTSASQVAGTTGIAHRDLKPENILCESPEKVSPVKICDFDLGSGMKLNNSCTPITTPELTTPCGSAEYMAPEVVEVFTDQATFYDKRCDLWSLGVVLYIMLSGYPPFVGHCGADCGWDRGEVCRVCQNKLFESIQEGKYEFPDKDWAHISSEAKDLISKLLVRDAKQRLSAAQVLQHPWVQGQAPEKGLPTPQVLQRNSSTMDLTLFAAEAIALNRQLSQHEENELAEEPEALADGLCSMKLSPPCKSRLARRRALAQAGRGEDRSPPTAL
# Chain of PKBa (P31749 118-480 S473D): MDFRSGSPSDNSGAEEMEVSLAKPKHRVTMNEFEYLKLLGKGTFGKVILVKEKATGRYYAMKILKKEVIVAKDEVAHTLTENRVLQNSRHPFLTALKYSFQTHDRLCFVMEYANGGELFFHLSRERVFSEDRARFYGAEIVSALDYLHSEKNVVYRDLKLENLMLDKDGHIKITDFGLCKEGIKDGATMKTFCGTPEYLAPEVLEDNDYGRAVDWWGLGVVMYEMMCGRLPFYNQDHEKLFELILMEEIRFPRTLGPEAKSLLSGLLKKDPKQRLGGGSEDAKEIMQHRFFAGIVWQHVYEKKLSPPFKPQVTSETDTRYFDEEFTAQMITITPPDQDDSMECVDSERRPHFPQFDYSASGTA
Structure (SMILES),percentage inhibition of ERK1 (ERK1) [percentage],percentage inhibition of PKBa (PKBa) [percentage],percentage inhibition of ERK2 (ERK2) [percentage],percentage inhibition of RSK2 (RSK2) [percentage],percentage inhibition of MNK1 (MNK1) [percentage],percentage inhibition of MST2 (MST2) [percentage],percentage inhibition of PRAK (PRAK) [percentage],percentage inhibition of MSK1 (MSK1) [percentage]
"c1cc2[nH]nc3c2c(n1)N(C1CCC1)CCC3 [Example 22, 6-cyclobutyl-6,7,8,9-tetrahydro-2H-1,2,5,6-tetraazabenzo[cd]azulene]",0,3,0,8,0,20,0,2
"c1cc2[nH]nc3c2c(n1)N(C1CCCC1)CCC3 [Example 23, 6-cyclopentyl-6,7,8,9-tetrahydro-2H-1,2,5,6-tetraazabenzo[cd]azulene]",0,0,0,5,0,0,0,2
"c1cc2[nH]nc3c2c(n1)N(C1CCOCC1)CCC3 [Example 29, 6-(tetrahydro-2H-pyran-4-yl)-6,7,8,9-tetrahydro-2H-1,2,5,6-tetraazabenzo[cd]azulene]",0,0,0,0,0,10,0,7
CN1CCC(N2Cc3ccccc3-c3n[nH]c4ccnc2c34)CC1 [Example 55],4,1,0,21,50,28,18,34
CC(C)n1ncc2c1CN(C1CCN(C)CC1)c1nccc3[nH]nc-2c13 [Example 68],11,0,11,54,1,2,13,30
